According to patent US10300026B2, “Use of dihydroxyacetone in preparation of anti-cancer medicaments” (priority 2015, dated 2019):

Legend:
[1] = test system: TT; test: CellTiter-Glo cell viability, TT (human thyroid cancer cell); format: cell-based; details: 72 hours, n=4, read-out: IC50
Experimental: (§1) 15 g of the commercially available 1,3-dihydroxyacetone in the solid powder form was added into 100 mL of 5% glucose (infusion bottle), then filled into 100 bottles.
(§2) After digesting the cells and counting (counting suspended cells directly), the cells were diluted to 1.25×10^5 cells/ml, inoculated into a 384-well plate (5000 cells/well) with 40 μl per well, centrifuged at 1500 rpm for 1 min, placed into the incubator and incubated overnight.
(§3) The medicaments were diluted in gradient with a 5% glucose solution to 5×, respectively. Each well was dosed with 10 μl medicament, with 4 wells (n=4) for each concentration. The cell viability was measured with Luminescence Cell Viability Assay kit after incubating for 72 hours in an incubator.
(§4) CellTiter-Glo reagent was added into each well, the volume of which is the same as that of medium. It was shaked on a shaker for 5 min, centrifuged at 1500 rpm for 1 min, and incubated in the dark at room temperature for 15 min. Then the chemiluminescence was detected with BMG PHERAstar.
(§5) The cell viability was calculated by using the following formula: Cell viability (Viability %)=100%×(LUMsample to be measured−LUMblank)/(LUMsolvent control−LUMblank)
(§6) The curve of Log[concentration] versus cell viability was fitted using Prism 6 to calculate IC50 of sample for each cell line.

[2] = test system: A673; test: CellTiter-Glo cell viability, A673 (human rhabdomyoma cell); format: cell-based; details: A673; 72 hours; n=4; read-out: IC50
Experimental: as §1, §2, §3, §4, §5, §6

[3] = test system: A2780; test: CellTiter-Glo cell viability, A2780 (human ovarian cancer cell line); format: cell-based; details: A2780; 72 hours; n=4; read-out: IC50
Experimental: as §1, §2, §3, §4, §5, §6

[4] = test system: Caki-1; test: CellTiter-Glo cell viability, Caki-1 (human renal clear cell carcinoma skin metastatic cell); format: cell-based; details: Caki-1; 72 hours; n=4; read-out: IC50
Experimental: as §1, §2, §3, §4, §5, §6

[5] = test system: SW480; test: CellTiter-Glo cell viability, SW480 (human colorectal cancer cell); format: cell-based; details: SW480; 72 hours; n=4; read-out: IC50
Experimental: as §1, §2, §3, §4, §5, §6

[6] = test system: A375; test: CellTiter-Glo cell viability, A375 (human malignant melanoma cell); format: cell-based; details: A375; 72 hours; n=4; read-out: IC50
Experimental: as §1, §2, §3, §4, §5, §6

[7] = test system: HCC1937; test: CellTiter-Glo cell viability, HCC1937 (human breast cancer cell); format: cell-based; details: HCC1937; 72 hours; n=4; read-out: IC50
Experimental: as §1, §2, §3, §4, §5, §6

[8] = test system: KB; test: CellTiter-Glo cell viability, KB (human oral cancer cell line); format: cell-based; details: 72 hours, n=4, read-out: IC50
Experimental: as §1, §2, §3, §4, §5, §6

[9] = test system: H460; test: CellTiter-Glo cell viability, H460 (human large cell lung cancer cell line); format: cell-based; details: H460; 72 hours; n=4; read-out: IC50
Experimental: as §1, §2, §3, §4, §5, §6

[10] = test system: Calu-6; test: CellTiter-Glo cell viability, Calu-6 (human degenerative cancer cell); format: cell-based; details: Calu-6; 72 hours; n=4; read-out: IC50
Experimental: as §1, §2, §3, §4, §5, §6

[11] = test system: S180; test: CellTiter-Glo cell viability, S180 (S180 sarcoma cells); format: cell-based; details: S180; 72 hours; n=4; read-out: IC50
Experimental: as §1, §2, §3, §4, §5, §6

[12] = test system: SMMC-7721; test: CellTiter-Glo cell viability, SMMC-7721 (human hepatoma cell line); format: cell-based; details: SMMC-7721; 72 hours; n=4; read-out: IC50
Experimental: as §1, §2, §3, §4, §5, §6

[13] = test system: HCCLM3; test: CellTiter-Glo cell viability, HCCLM3 (human high metastatic hepatoma cell); format: cell-based; details: HCCLM3; 72 hours; n=4; read-out: IC50
Experimental: as §1, §2, §3, §4, §5, §6

[14] = test system: HT29; test: CellTiter-Glo cell viability, HT29 (human colon cancer cell line); format: cell-based; details: HT29; 72 hours; n=4; read-out: IC50
Experimental: as §1, §2, §3, §4, §5, §6

[15] = test system: RPMI8226; test: CellTiter-Glo cell viability, RPMI8226 (multiple myeloma); format: cell-based; details: RPMI8226; 72 hours; n=4; read-out: IC50
Experimental: as §1, §2, §3, §4, §5, §6

[16] = test system: human large cell lung cancer H460 cell transplantation tumor; test: H460 cell transplantation tumor model in naked mice; format: in vivo, Balb/c-nude naked mice
Experimental: Naked mice were subcutaneously inoculated with H460 cells (human large cell lung cancer cell line). When tumors grew to about 100 mm^3, 36 naked mice with similar tumor volume and good shape were selected from 70 naked mice, divided into 6 groups with 6 animals in each group;
Cisplatin: 4 mg/kg, volume of injection was 0.1 mL/10 g, i.p, administration once every 5 days, three weeks in total;
Cisplatin group: 4 mg/kg, volume of injection was 0.1 mL/10 g, i.p, administration once every 5 days, three weeks in total;
Blank group: 0.9% sodium chloride injection, mode of administration was same as DHA group.
3.1.3 Naked mice were inoculated subcutaneously at the right side of back, 0.1 mL/mouse, i.e. each naked mouse was inoculated 2×10^6 cells;
3.2.1 When tumors grew to about 100 mm^3, 36 naked mice with similar tumor volume and good shape were selected from 70 naked mice, and divided into 6 groups with 6 animals in each group.
The mixture was refrigerated at 4° C. when not used. […] 4 mL of 0.6 mg/mL cisplatin solution were measured and added with 2.0 mL physiological saline to formulate a 0.4 mg/mL (4 mg/kg) cisplatin solution. The solution was refrigerated at 4° C. when not used.
The tumor volume and body weight were measured three times per week from the first day of administration. Naked mice were sacrificed on 22th day. The tumors were taken out, weighed and photographed. The tumor inhibition rate was calculated.
The calculation formula is: TV=½×a×b^2, where a and b represents length and width, respectively.
The calculation formula is: RTV=TVt/TV1, where TV1 is a tumor volume when being caged and administrated (i.e., d1), TVt is a tumor volume at each measurement.
The calculation formula is: […]
TRTV: RTV of treatment group; CRTV: RTV of blank control group.
TTW: tumor weight of treatment group; CTW: tumor weight of blank control group; TW: tumor weight.

[17] = test system: T24; test: CellTiter-Glo cell viability, T24 (human bladder transitional cell carcinoma cell); format: cell-based; details: T24; 72 hours; n=4; read-out: IC50
Experimental: as §1, §2, §3, §4, §5, §6

[18] = test system: BEL-7402; test: CellTiter-Glo cell viability, BEL-7402 (human hepatoma cell line); format: cell-based; details: BEL-7402; 72 hours; n=4; read-out: IC50
Experimental: as §1, §2, §3, §4, §5, §6

[19] = test system: WIL2-S; test: CellTiter-Glo cell viability, WIL2-S (human B lymphocyte); format: cell-based; details: WIL2-S; 72 hours; n=4; read-out: IC50
Experimental: as §1, §2, §3, §4, §5, §6

[20] = test system: HepG2; test: CellTiter-Glo cell viability, HepG2 (human hepatoma cell line); format: cell-based; details: HepG2; 72 hours; n=4; read-out: IC50
Experimental: as §1, §2, §3, §4, §5, §6

[21] = test system: SGC7901; test: CellTiter-Glo cell viability, SGC7901 (human gastric adenocarcinoma cell); format: cell-based; details: SGC7901; 72 hours; n=4; read-out: IC50
Experimental: as §1, §2, §3, §4, §5, §6

[22] = test system: HL-60; test: CellTiter-Glo cell viability, HL-60 (human leukemic cell line); format: cell-based; details: HL-60; 72 hours; n=4; read-out: IC50
Experimental: as §1, §2, §3, §4, §5, §6

[23] = D20, H460 tumor naked mice, cisplatin 4 mg/kg i.p. once every 5 days, DHA p.o. 0.1 mL/10 g bid

With `N.N.[Cl][Pt][Cl]` [DDP, cis-diammine platinum dichloride, reference compound] the IC50 [1] was 9.72 µM, the IC50 [2] was 1.11 µM and the IC50 [3] was 32.2 µM. It also gave an IC50 [4] of 13.1 µM, an IC50 [5] of 16.7 µM and an IC50 [6] of 8.25 µM. For the same compound, the IC50 [7] was 14.8 µM, the IC50 [8] was 2 µM and the IC50 [9] was 1.67 µM. The IC50 [10] was 220 µM, the IC50 [11] was 0.26 µM and the IC50 [12] was 6.19 µM. It also gave an IC50 [13] of 183 µM, an IC50 [14] of 48.6 µM and an IC50 [15] of 5.79 µM. The “TV (mm^3) D1” value ([16]; D1 (first day of administration), H460 tumor naked mice) was 90.30 ± 5.61 mm^3, the “Body weight (g) D1” value ([16]; D1 (first day of administration), H460 tumor naked mice, cisplatin 4 mg/kg i.p. once every 5 days, DHA p.o. 0.1 mL/10 g bid) was 21.1 ± 0.9 g and the “Body weight (g) D20” value [16, 23] was 17.6 ± 0.7 g. The “TV (mm^3) D20” value [16, 23] was 972.1 ± 289.5 mm^3, the “Body temperature” value ([16]; H460 tumor naked mice) was “decreased” and the “Effect of tumor inhibition” value ([16]; H460 tumor naked mice, vs blank) was “significant effect of tumor inhibition”. For the same compound, the “Body weight during the whole test” value ([16]; H460 tumor naked mice, whole test) was “decreased significantly”, the “Body weight decrease at the end of the test” value ([16]; end of the test, H460 tumor naked mice) was “about 16.7%” and the “Tumor Weight TW” value ([16]; tumors taken out at sacrifice on 22th day, cisplatin 4 mg/kg i.p. once every 5 days, DHA p.o. 0.1 mL/10 g bid) was 0.65 ± 0.23 g. For the same compound, the “Tumor Weight Inhibition Rate IR (%)” value ([16]; vs blank control group tumor weight, cisplatin 4 mg/kg i.p. once every 5 days, DHA p.o. 0.1 mL/10 g bid) was 44.6%, the IC50 [17] was 6.22 µM and the IC50 [18] was 5.37 µM. The IC50 [19] was 9.89 µM, the IC50 [20] was 13.9 µM and the IC50 [21] was 24 µM. It also gave an IC50 [22] of 1.82 µM.
